# Data taken from US4443436A, “C-20-Modified macrolide derivatives of the macrolide antibiotics tylosin, desmycosin, macrocin, and lactenocin” (Eli Lilly and Company, priority 1982, dated 1984).
# Like-named read-outs stand apart in the source and are kept apart here.
# Experiments:
# [1] = tested on: Staphylococcus aureus; assay: MIC, broth-dilution microtiter test, Staphylococcus aureus; type: cell-based
# Excerpt: (§1) The MIC's in Table X were obtained using conventional broth-dilution microtiter tests.
# [2] = tested on: Streptococcus bovis 80; assay: MIC, broth-dilution microtiter test, Streptococcus bovis 80; type: cell-based; details: Streptococcus equinus
# Excerpt: as §1
# [3] = tested on: Streptococcus pneumoniae Park I; assay: microbe, parasite or virus in culture; type: cell-based
# [4] = tested on: Staphylococcus aureus X1.1; assay: MIC, standard agar-dilution assay, Staphylococcus aureus X1.1; type: cell-based; details: Staphylococcus aureus, X1.1
# [5] = tested on: Streptococcus Group D X66; assay: MIC, standard agar-dilution assay, Streptococcus Group D X66; type: cell-based; details: Streptococcus Group D X66; agar dilution; read-out: MIC
# [6] = tested on: Haemophilus influenzae R252; assay: MIC, standard agar-dilution assay, Haemophilus influenzae R252; type: cell-based
# [7] = tested on: Streptococcus Group 9960; assay: MIC, standard agar-dilution assay, Streptococcus Group 9960; type: cell-based; details: GROUP9960; Streptococcus Group 9960; agar dilution; read-out: MIC
# [8] = tested on: Staphylococcus aureus S13E; assay: MIC, standard agar-dilution assay, Staphylococcus aureus S13E; type: cell-based; details: Staphylococcus aureus, S13E
# [9] = tested on: Mycoplasma hyorhinis; assay: MIC, broth-dilution microtiter test, Mycoplasma hyorhinis; type: cell-based
# Excerpt: as §1
# [10] = tested on: Staphylococcus epidermidis EPI1; assay: MIC, standard agar-dilution assay, Staphylococcus epidermidis EPI1; type: cell-based
# [11] = tested on: Haemophilus influenzae Holt; assay: MIC, standard agar-dilution assay, Haemophilus influenzae Holt; type: cell-based
# [12] = tested on: Mycoplasma gallisepticum; assay: MIC, broth-dilution microtiter test, Mycoplasma gallisepticum; type: cell-based; details: Mycoplasmoides gallisepticum
# Excerpt: as §1
# [13] = tested on: Staphylococcus epidermidis EPI2; assay: MIC, standard agar-dilution assay, Staphylococcus epidermidis EPI2; type: cell-based; details: Staphylococcus epidermidis, EPI2
# [14] = tested on: Pasteurella multocida 60A; assay: MIC, broth-dilution microtiter test, Pasteurella multocida 60A; type: cell-based; details: Pasteurella multocida 60A; avian isolate; broth-dilution microtiter; read-out: MIC
# Excerpt: as §1
# [15] = tested on: Streptococcus pyogenes C203; assay: MIC, standard agar-dilution assay, Streptococcus pyogenes C203; type: cell-based
# [16] = tested on: Pasteurella multocida 17E; assay: MIC, broth-dilution microtiter test, Pasteurella multocida 17E; type: cell-based
# Excerpt: as §1
# [17] = tested on: Pasteurella hemolytica 22C; assay: MIC, broth-dilution microtiter test, Pasteurella hemolytica 22C; type: cell-based; details: Pasteurella hemolytica 22C; broth-dilution microtiter; read-out: MIC
# Excerpt: as §1
# [18] = tested on: Staphylococcus aureus V41; assay: MIC, standard agar-dilution assay, Staphylococcus aureus V41; type: cell-based
# [19] = tested on: Staphylococcus aureus X400; assay: MIC, standard agar-dilution assay, Staphylococcus aureus X400; type: cell-based; details: Staphylococcus aureus, X400
# [20] = tested on: Mycoplasma synoviae; assay: MIC, broth-dilution microtiter test, Mycoplasma synoviae; type: cell-based; details: Mycoplasmopsis synoviae
# Excerpt: as §1
# [21] = tested on: Streptococcus pyogenes C203; assay: In vivo protection of mice experimentally infected with S. pyogenes C203; details: Streptococcus pyogenes, mice, doses given 1 and 4 hours post-infection
# Description: The C-20 modified derivatives of this invention have shown in vivo antimicrobial activity against experimentally-induced infections in laboratory animals. When two doses of test compound were administered to mice experimentally infected with S. pyogenes C203, the activity observed was measured as an ED50 value [effective dose in mg/kg to protect 50% of the test animals: see Warren Wick, et al., J. Bacteriol. 81, 233-235 (1961)].
# [22] = Mycoplasma hyorhinis, broth-dilution microtiter, read-out: MIC
# [23] = Staphylococcus epidermidis, EPI1
# [24] = Streptococcus bovis 80, broth-dilution microtiter, read-out: MIC
# [25] = C203, sc, subcutaneous, read-out: ED50, Subcutaneous
# [26] = C203, oral, read-out: ED50, Oral
# [27] = Pasteurella multocida 17E, bovine isolate, broth-dilution microtiter, read-out: MIC
smiles,measurement,setting,value
"CCC1OC(=O)CC(O)C(C)C(OC2OC(C)C(OC3CC(C)(O)C(O)C(C)O3)C(N(C)C)C2O)C(CCOC(=O)c2nn(CC)c3cc4c(cc3c2=O)OCO4)CC(C)C(=O)C=CC(C)=CC1COC1OC(C)C(O)C(OC)C1OC (centres unmarked) [Compound 10, 20-DH-20-O-Cinoxacinyltylosin]",MIC,[1],12.5 µg/mL
same,MIC,[2]; 80,3.12 µg/mL
same,MIC,[3]; Streptococcus pneumoniae,0.5 µg/mL
same,MIC,[4],1 µg/mL
same,MIC,[5],8 µg/mL
same,MIC,"[6]; Haemophilus influenzae, R252",128 µg/mL
same,MIC,[7],8 µg/mL
same,MIC,[8],4 µg/mL
same,MIC,[9]; [22],25 µg/mL
same,MIC,[10]; [23],2 µg/mL
same,MIC,[11]; Haemophilus influenzae,128 µg/mL
same,MIC,[12],0.78 µg/mL
same,MIC,[13],8 µg/mL
same,MIC,[14],> 50 µg/mL
same,MIC,"[15]; Streptococcus pyogenes, C203",1 µg/mL
same,MIC,"[16]; Pasteurella multocida, 17E",> 50 µg/mL
same,MIC,[17],> 50 µg/mL
same,MIC,"[18]; Staphylococcus aureus, V41",2 µg/mL
same,MIC,[19],8 µg/mL
"CCC1OC(=O)CC(O)C(C)C(OC2OC(C)C(OC3CC(C)(O)C(O)C(C)O3)C(N(C)C)C2O)C(CCSc2nnnn2C)CC(C)C(=O)C=CC(C)=CC1COC1OC(C)C(O)C(OC)C1OC (centres unmarked) [Compound 5, 20-DH-DO-20-[(1-N-Methyltetrazol-5-yl)thio]tylosin]",MIC,[1],1.56 µg/mL
same,MIC,[2]; [24],> 50 µg/mL
same,MIC,[3]; Streptococcus pneumoniae,32 µg/mL
same,MIC,[4],0.5 µg/mL
same,MIC,[5],128 µg/mL
same,MIC,[20],3.12 µg/mL
same,MIC,"[6]; Haemophilus influenzae, R252",128 µg/mL
same,MIC,[7],128 µg/mL
same,ED50,[21]; [25],> 6.3 mg/kg
same,ED50,[21]; [26],56 mg/kg
same,MIC,[8],2 µg/mL
same,MIC,[9]; [22],> 50 µg/mL
same,MIC,"[10]; Staphylococcus epidermidis EPI1, agar dilution, read-out: MIC",1 µg/mL
same,MIC,[11]; Haemophilus influenzae,> 128 µg/mL
same,MIC,[12],1.56 µg/mL
same,MIC,[14],> 50 µg/mL
same,MIC,"[15]; Streptococcus pyogenes C203, agar dilution, read-out: MIC",1 µg/mL
same,MIC,[16]; [27],> 50 µg/mL
same,MIC,[17],> 50 µg/mL
same,MIC,"[18]; Staphylococcus aureus V41, penicillin-resistant strain, agar dilution, read-out: MIC",1 µg/mL
same,MIC,[19],2 µg/mL
"CCC1OC(=O)CC(O)C(C)C(OC2OC(C)C(OC3CC(C)(O)C(O)C(C)O3)C(N(C)C)C2O)C(CCNC(=O)Cc2ccccc2)CC(C)C(=O)C=CC(C)=CC1COC1OC(C)C(O)C(OC)C1OC (centres unmarked) [Compound 3, 20-DH-DO-20-[N-(Phenylacetyl)amino]tylosin]",MIC,[1],1.56 µg/mL
same,MIC,[2]; [24],6.25 µg/mL
same,MIC,[3]; Streptococcus pneumoniae,1 µg/mL
same,MIC,[4],1 µg/mL
same,MIC,[5],64 µg/mL
same,MIC,"[6]; Haemophilus influenzae, R252",64 µg/mL
same,MIC,[7],64 µg/mL
same,MIC,[8],0.5 µg/mL
same,MIC,[9]; Mycoplasma,12.5 µg/mL
same,MIC,[10]; [23],0.5 µg/mL
same,MIC,[11]; Haemophilus influenzae,128 µg/mL
same,MIC,[12],0.78 µg/mL
same,MIC,[13],0.5 µg/mL
same,MIC,[14],> 50 µg/mL
same,MIC,"[15]; Streptococcus pyogenes, C203",2 µg/mL
same,MIC,[16]; [27],> 50 µg/mL
same,MIC,[17],> 50 µg/mL
same,MIC,"[18]; Staphylococcus aureus, V41",1 µg/mL
same,MIC,[19],2 µg/mL
"CCC1CC(C)C(=O)C=CC(C)=CC(COC2OC(C)C(O)C(O)C2OC)C(CC)OC(=O)CC(O)C(C)C1OC1OC(C)C(O)C(N(C)C)C1O (centres unmarked) [Compound 60, 20-DH-DO-Lactenocin]",MIC,[1],0.78 µg/mL
same,MIC,[2]; [24],6.25 µg/mL
same,MIC,[3]; Streptococcus pneumoniae,0.5 µg/mL
same,MIC,[4],0.25 µg/mL
same,MIC,[5],8 µg/mL
same,MIC,"[20]; Mycoplasma synoviae, broth-dilution microtiter, read-out: MIC",> 50 µg/mL
same,MIC,"[6]; Haemophilus influenzae, R252",16 µg/mL
same,MIC,[7],8 µg/mL
same,ED50,[21]; [25],3.9 mg/kg
same,ED50,[21]; [26],46 mg/kg
same,MIC,[8],0.25 µg/mL
same,MIC,[9]; Mycoplasma,50 µg/mL
same,MIC,[10]; [23],0.25 µg/mL
same,MIC,[12],1.56 µg/mL
same,MIC,[13],0.25 µg/mL
same,MIC,[14],25 µg/mL
same,MIC,[16]; [27],25 µg/mL
same,MIC,[17],25 µg/mL
same,MIC,"[18]; Staphylococcus aureus, V41",0.25 µg/mL
same,MIC,[19],0.5 µg/mL
"CCC1OC(=O)CC(O)C(C)C(OC2OC(C)C(OC3CC(C)(O)C(O)C(C)O3)C(N(C)C)C2O)C(CCI)CC(C)C(=O)C=CC(C)=CC1COC1OC(C)C(O)C(O)C1OC (centres unmarked) [Compound 52, 20-DH-DO-20-Iodomacrocin]",MIC,[1],12.5 µg/mL
same,MIC,[2]; [24],50 µg/mL
same,MIC,"[3]; Streptococcus pneumoniae Park I, agar dilution, read-out: MIC",16 µg/mL
same,MIC,[4],2 µg/mL
same,MIC,[5],128 µg/mL
same,MIC,"[6]; Haemophilus influenzae R252, ampicillin-resistant strain, read-out: MIC",> 128 µg/mL
same,MIC,[7],128 µg/mL
same,MIC,[8],4 µg/mL
same,MIC,[9]; Mycoplasma,50 µg/mL
same,MIC,[10]; [23],2 µg/mL
same,MIC,"[11]; Haemophilus influenzae Holt, ampicillin-sensitive strain, read-out: MIC",> 128 µg/mL
same,MIC,[12],3.12 µg/mL
same,MIC,[13],2 µg/mL
same,MIC,[14],> 50 µg/mL
same,MIC,"[15]; Streptococcus pyogenes, C203",4 µg/mL
same,MIC,[16]; [27],> 50 µg/mL
same,MIC,[17],> 50 µg/mL
same,MIC,"[18]; Staphylococcus aureus, V41",2 µg/mL
same,MIC,[19],8 µg/mL
